Results as given in patent US12421249B2, “Inhibitors of APOL1 and methods of using same” (Vertex Pharmaceuticals Incorporated, priority 2020, dated 2025).

What was measured:
APOL1 G1 = target: T1, APOL1 G1 (Homo sapiens, UniProt O14791, I384M/S342G); test: Trypanosoma brucei brucei Lysis Assay Using APOL1 Recombinant Protein (AlamarBlue viability readout); format: cell-based; details: Trypanosome Assay; for IC50: IP50 = IC50 for cell proliferation, read-out: Trypanosome Assay IP50; for Emax: read-out: Trypanosome Assay Max Activity (%)
T1 sequence (O14791 28-398 S342G/I384M): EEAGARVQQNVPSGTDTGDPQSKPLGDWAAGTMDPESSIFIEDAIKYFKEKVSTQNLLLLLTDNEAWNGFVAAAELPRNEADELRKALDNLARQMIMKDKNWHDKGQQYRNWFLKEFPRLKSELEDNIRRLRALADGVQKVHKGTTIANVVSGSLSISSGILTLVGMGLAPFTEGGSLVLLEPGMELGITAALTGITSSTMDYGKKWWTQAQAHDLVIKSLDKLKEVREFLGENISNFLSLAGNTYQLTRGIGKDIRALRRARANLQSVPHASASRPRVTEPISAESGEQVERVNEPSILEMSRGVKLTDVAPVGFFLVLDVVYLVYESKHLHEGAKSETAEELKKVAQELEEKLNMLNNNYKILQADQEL
Summary of the method: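 Percent viability comes from AlamarBlue (resazurin→resorufin) fluorescence interpolated on a standard curve of known parasite numbers, with no-APOL1 wells as 100%. Parasites (Lister 427 bloodstream form, 120,000/well, serum-free assay medium) meet 0.05 μg/mL APOL1 (~EC90). Compounds span a 10-point series, 0.1% DMSO final.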

APOL1 = target: T2, APOL1 (Homo sapiens, UniProt O14791); test: Multi-Tox Assay (MultiTox-Fluor Multiplex Cytotoxicity Assay in tet-inducible APOL1 T-REx-HEK293 cells; Table 46 does not say which APOL1 variant G0/G1/G2); format: cell-based; details: APOL1 variant not given; for IC50: IP50 = IC50 for cell proliferation
T2 sequence (O14791 1-398 S342G/I384M): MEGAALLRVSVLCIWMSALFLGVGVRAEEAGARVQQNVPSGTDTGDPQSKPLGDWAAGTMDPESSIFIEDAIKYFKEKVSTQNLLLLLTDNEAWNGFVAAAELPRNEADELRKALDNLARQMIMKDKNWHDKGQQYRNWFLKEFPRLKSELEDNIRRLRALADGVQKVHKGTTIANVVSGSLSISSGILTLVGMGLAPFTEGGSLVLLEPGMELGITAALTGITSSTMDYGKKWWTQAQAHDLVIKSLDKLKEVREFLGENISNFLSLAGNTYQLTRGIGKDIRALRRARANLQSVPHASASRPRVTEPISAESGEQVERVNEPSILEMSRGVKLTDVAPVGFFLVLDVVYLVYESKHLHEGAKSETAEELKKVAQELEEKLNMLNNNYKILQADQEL

| Structure (SMILES) | IC50 (APOL1 G1) | Emax (APOL1 G1) | Multi-Tox Assay Max Activity (%) (APOL1) | IC50 (APOL1) |
| --- | --- | --- | --- | --- |
| CCC(O)Cn1cc([C@@H]2C[C@]3(C[C@H](C)N2)OCCc2cc(Cl)sc23)nn1 (mixture of isomers) [Compound 111] | 50 to 500 nM | 98.5% | 99.3% | < 50 nM |
| C[C@H]1C[C@@]2(C[C@@H](c3ccnc(O)c3)N1)OCCc1cc(Cl)sc12 (racemic) [Compound 112] | 50 to 500 nM | 112% | 100.0% | < 50 nM |
| CC(=O)Nc1cccc([C@@H]2C[C@]3(C[C@H](C)N2)OCCc2cc(Cl)sc23)c1 (racemic) [Compound 113] | 50 to 500 nM | 97% | 100.0% | < 50 nM |
| C[C@H]1C[C@@]2(C[C@@H](c3cccc(NS(C)(=O)=O)c3)N1)OCCc1cc(Cl)sc12 (racemic) [Compound 115] | 50 to 500 nM | 100% | 99.3% | < 50 nM |
| Cc1nccc([C@@H]2C[C@]3(C[C@H](C)N2)OCCc2cc(Cl)sc23)n1 (racemic) [Compound 116] | 50 to 500 nM | 101% |  | < 50 nM |
| C[C@H]1C[C@@]2(C[C@@H](c3cnn4ccccc34)N1)OCCc1cc(Cl)sc12 (racemic) [Compound 117] | < 50 nM | 101% | 99.0% | < 50 nM |
| C[C@H]1C[C@@]2(C[C@@H](c3ccn(C)n3)N1)OCCc1cc(Cl)sc12 (racemic) [Compound 118] | 50 to 500 nM | 98% | 99.3% | < 50 nM |
| C[C@H]1C[C@@]2(C[C@@H](c3cc(C4CC4)n[nH]3)N1)OCCc1cc(Cl)sc12 (racemic) [Compound 120] | 50 to 500 nM | 91.5% | 99.0% | < 50 nM |
| C[C@H]1C[C@@]2(C[C@@H](c3ccc[nH]c3=O)N1)OCCc1cc(Cl)sc12 (racemic) [Compound 121] | 50 to 500 nM | 97.5% | 99.0% | < 50 nM |
| C[C@H]1C[C@@]2(C[C@@H](c3ccc(C(F)(F)F)nc3)N1)OCCc1cc(Cl)sc12 (racemic) [Compound 123] | < 50 nM | 104% | 100.0% | < 50 nM |
| C[C@H]1C[C@@]2(C[C@@H](c3cn(C)c(=O)n(C)c3=O)N1)OCCc1cc(Cl)sc12 (racemic) [Compound 124] | 50 to 500 nM | 104% | 99.3% | 50 to 500 nM |
| Cc1cc(O)ncc1[C@@H]1C[C@]2(C[C@H](C)N1)OCCc1cc(Cl)sc12 (racemic) [Compound 125] | 50 to 500 nM | 103% | 99.7% | < 50 nM |
| Cc1cccc([C@@H]2C[C@]3(C[C@H](C)N2)OCCc2cc(Cl)sc23)n1 (racemic) [Compound 126] | 50 to 500 nM | 115% | 99.4% | 50 to 500 nM |
| C[C@H]1C[C@@]2(C[C@@H](c3ccnc(N(C)C)n3)N1)OCCc1cc(Cl)sc12 (racemic) [Compound 127] | 50 to 500 nM | 107% | 99.3% | 50 to 500 nM |
| CCc1nc([C@@H]2C[C@]3(C[C@H](C)N2)OCCc2cc(Cl)sc23)c[nH]1 (racemic) [Compound 128] | 50 to 500 nM | 107% | 99.3% | 50 to 500 nM |
| C[C@H]1C[C@@]2(C[C@@H](c3cnc(N4CCN(C)CC4)nc3)N1)OCCc1cc(Cl)sc12 (racemic) [Compound 129] | < 50 nM | 88% | 100.0% | 50 to 500 nM |
| C[C@H]1C[C@@]2(C[C@@H](c3c[nH]c(C4CC4)n3)N1)OCCc1cc(Cl)sc12 (racemic) [Compound 130] | 50 to 500 nM | 102% | 99.0% | 50 to 500 nM |
| C[C@H]1C[C@@]2(C[C@@H](c3cc4n(n3)CCCO4)N1)OCCc1cc(Cl)sc12 (racemic) [Compound 131] | 50 to 500 nM | 111% | 99.3% | 50 to 500 nM |
| Cc1nocc1[C@@H]1C[C@]2(C[C@H](C)N1)OCCc1cc(Cl)sc12 (racemic) [Compound 132] | 50 to 500 nM | 91.5% | 99.3% | 50 to 500 nM |

| Structure (SMILES) | IC50 (APOL1 G1) | Emax (APOL1 G1) | Multi-Tox Assay Max Activity (%) (APOL1) | IC50 (APOL1) |
| --- | --- | --- | --- | --- |
| C[C@H]1C[C@@]2(C[C@@H](c3cn(CC(N)=O)nn3)N1)OCCc1cc(Cl)sc12 (racemic) [Compound 133] | 50 to 500 nM | 111% | 99.7% | 50 to 500 nM |
| Cc1cnc([C@@H]2C[C@]3(C[C@H](C)N2)OCCc2cc(Cl)sc23)o1 (racemic) [Compound 134] | 50 to 500 nM | 96.7% | 99.2% | 50 to 500 nM |
| Cc1c([C@@H]2C[C@]3(C[C@H](C)N2)OCCc2cc(Cl)sc23)cnn1C (racemic) [Compound 136] | 50 to 500 nM | 100% |  | 50 to 500 nM |
| COc1cc(O)cc([C@@H]2C[C@]3(C[C@H](C)N2)OCCc2cc(Cl)sc23)c1 (racemic) [Compound 137] | 50 to 500 nM | 84.5% | 98.7% | 50 to 500 nM |
| Cc1cc([C@@H]2C[C@]3(C[C@H](C)N2)OCCc2cc(Cl)sc23)nc(N(C)C)n1 (racemic) [Compound 138] | 50 to 500 nM | 104% | 98.0% | 50 to 500 nM |
| Cc1ccnc([C@@H]2C[C@]3(C[C@H](C)N2)OCCc2cc(Cl)sc23)c1 (racemic) [Compound 139] | > 500 nM | 98.3% | 98.0% | 50 to 500 nM |
| C[C@H]1C[C@@]2(C[C@@H](c3cnc(C4CCOCC4)o3)N1)OCCc1cc(Cl)sc12 (racemic) [Compound 140] | 50 to 500 nM | 102% | 99.7% | 50 to 500 nM |
| C[C@H]1C[C@@]2(C[C@@H](c3cccc4[nH]c(=O)oc34)N1)OCCc1cc(Cl)sc12 (racemic) [Compound 141] | 50 to 500 nM | 90% |  | 50 to 500 nM |
| Cc1nn(C)cc1[C@@H]1C[C@]2(C[C@H](C)N1)OCCc1cc(Cl)sc12 (racemic) [Compound 142] | 50 to 500 nM | 83.7% | 99.0% | 50 to 500 nM |
| Cc1nc([C@@H]2C[C@]3(C[C@H](C)N2)OCCc2cc(Cl)sc23)oc1C (racemic) [Compound 144] | 50 to 500 nM | 102% | 98.0% | 50 to 500 nM |
| COc1ccnc([C@@H]2C[C@]3(C[C@H](C)N2)OCCc2cc(Cl)sc23)n1 (racemic) [Compound 145] | 50 to 500 nM | 88% |  | 50 to 500 nM |
| C[C@H]1C[C@@]2(C[C@@H](c3cccc(S(C)(=O)=O)c3)N1)OCCc1cc(Cl)sc12 (racemic) [Compound 146] | 50 to 500 nM | 88% |  | 50 to 500 nM |
| C[C@H]1C[C@@]2(C[C@@H](c3cccc(S(N)(=O)=O)c3)N1)OCCc1cc(Cl)sc12 (racemic) [Compound 147] | 50 to 500 nM | 93.5% |  | 50 to 500 nM |
| C[C@H]1C[C@@]2(C[C@@H](c3cccc(-c4cn[nH]c4)c3)N1)OCCc1cc(Cl)sc12 (racemic) [Compound 148] | 50 to 500 nM | 92.5% | 97.0% | 50 to 500 nM |
| C[C@H]1C[C@@]2(C[C@@H](c3cnc4n3CCOC4)N1)OCCc1cc(Cl)sc12 (racemic) [Compound 149] | > 500 nM | 95% |  | 50 to 500 nM |
| Cc1nc([C@@H]2C[C@]3(C[C@H](C)N2)OCCc2cc(Cl)sc23)[nH]c1C (racemic) [Compound 150] | > 500 nM | 87% | 96.3% | 50 to 500 nM |
| C[C@H]1C[C@@]2(C[C@@H](c3cccc(=O)[nH]3)N1)OCCc1cc(Cl)sc12 (racemic) [Compound 151] | > 500 nM | 85.7% |  | 50 to 500 nM |
| C[C@H]1C[C@@]2(C[C@@H](c3ccnn3C)N1)OCCc1cc(Cl)sc12 (racemic) [Compound 152] | > 500 nM | 92.7% | 98.0% | 50 to 500 nM |
